According to patent publication US9521847B2, “Synergistic weed control from applications of pyridine carboxylic acid herbicides and synthetic auxin herbicides and/or auxin transport inhibitors” (Dow AgroSciences LLC, priority 2014, dated 2016):
Where two headings read alike, the source gives them in different places.

Columns and labels:
winter wheat (TRZAW) [1] = conditions: in vivo
[2] = test system: wild pansy (Viola tricolor, VIOTR); assay: Greenhouse postemergence trial, % visual injury
[3] = test system: nutsedge (Cyperus esculentus, CYPES); assay: Greenhouse postemergence trial, % visual injury; assay type: in vivo
[4] = test system: grain sorghum (Sorghum vulgare, SORVU); assay: Greenhouse postemergence trial, % visual injury; assay type: in vivo
[5] = test system: Canadian thistle (CIRAR, Cirsium arvense); assay: Greenhouse postemergence trial, % visual injury; conditions: for % visual injury, Obs: CIRAR;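 as to all read-outs here: plants sprayed at second to third true leaf stage, injury scored visually 20-22 d later against solvent-blank sprayed controls, 0 meaning no injury and 100 complete kill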
[6] = test system: spring rape (Brassica napus, BRSNN); assay: Greenhouse postemergence trial, % visual injury
maize (ZEAMX) [7] = assay: Greenhouse postemergence trial, crop phytotoxicity (% visual injury); conditions: for % visual injury, Obs: ZEAMX
common rice (ORYSA) [8] = assay: as above; conditions: for % visual injury, Obs: ORYSA
[9] = test system: wild buckwheat (Polygonum convolvulus, POLCO); assay: Greenhouse postemergence trial, % visual injury; assay type: in vivo; conditions: POLCO, 5 g ae/ha
winter wheat (TRZAW) [10] = assay: Greenhouse postemergence trial, crop phytotoxicity (% visual injury); conditions: for % visual injury, Obs: TRZAW; for % visual injury Obs: crop, 20-22 d
[11] = test system: large crabgrass (Digitaria sanguinalis, DIGSA); assay: Greenhouse postemergence trial, % visual injury; assay type: in vivo; conditions: DIGSA
[12] = test system: sunflower (Helianthus annus, HELAN); assay: Greenhouse postemergence trial, % visual injury; assay type: in vivo
[13] = test system: velvetleaf (Abutilon theophrasti, ABUTH); assay: Greenhouse postemergence trial, % visual injury; assay type: in vivo
[14] = test system: kochia (KCHSC, Kochia scoparia); assay: Greenhouse postemergence trial, % visual injury; assay type: in vivo
Method: Following the protocol in Example 1, compound 1 and compound 2 were combined with 2,4 D EHE (EC) and applied to kochia (KCHSC, Kochia scoparia) and the phytotoxicity of the herbicidal compositions was measured.
Following the protocol in Example 1, compound 1 (EC) and Compound 2 (SC) were combined with diflufenzopyr and applied to kochia (Kochia scoparia, KCHSC) and the phytotoxicity of the herbicidal composition was measured.

[15] = test system: common lambsquarters (CHEAL, Chenopodium album L.); assay: Greenhouse postemergence trial, % visual injury; assay type: in vivo
[16] = test system: pigweed (AMARE, Amaranthus retroflexus); assay: Greenhouse postemergence trial, % visual injury; assay type: in vivo
[17] = test system: common chickweed (Stellaria media, STEME); assay: Greenhouse postemergence trial, % visual injury; assay type: in vivo
[18] = test system: winter rape (BRSNW, Brassica napus); assay: Greenhouse postemergence trial, % visual injury; assay type: in vivo; conditions: 20-22 d
spring barley (HORVS) [19] = assay: Greenhouse postemergence trial, crop phytotoxicity (% visual injury); conditions: crop, 20-22 d
[20] = test system: poinsettia (Euphorbia heterophylla, EPHHL); assay: Greenhouse postemergence trial, % visual injury
[21] = test system: ivyleaf morningglory (Ipomoea hederacea, IPOHE); assay: Greenhouse postemergence trial, % visual injury
spring barley (HORVS) [22] = conditions: Hordeum vulgare (spring barley), in vivo
common rice (ORYSA) [23] = conditions: in vivo
maize (ZEAMX) [24] = conditions: maize (Zea mays), in vivo
[25] = Triticum aestivum (winter wheat)
[26] = Cirsium arvense, post-emergence, read-out: % visual injury (Obs)
[27] = Brassica napus, post-emergence, read-out: % visual injury (Obs)
[28] = Cirsium arvense, post-emergence, read-out: % visual injury Obs
[29] = Brassica napus, post-emergence, read-out: % visual injury, Obs
[30] = winter wheat (Triticum aestivum)

## Nc1c(F)c(-c2ccc3cc[nH]c3c2)nc(C(=O)O)c1Cl [compound 16]
Winter wheat (TRZAW) [1]; [25]
  % visual injury (Obs): 0%
[2]; compound 16 5 g ae/ha
  % visual injury (Obs): 25%
[3]; compound 16 5 g ae/ha
  % visual injury (Obs): 25%
[4]; compound 16 5 g ae/ha
  % visual injury (Obs): 13%
[5]; [26]
  pest or weed control at 5 g/ha: 20%
[6]; [27]
  plant injury at 5 g/ha: 60%

## COc1c(Cl)ccc(-c2nc(C(=O)OCc3ccccc3)c(Cl)c(N)c2F)c1F [Rinskor ™]
[2]; VIOTR, 5 g ae/ha
  % visual injury, Obs: 10%
Maize (ZEAMX) [7]; 5 g ae/ha
  % visual injury, Obs: 0%
Common rice (ORYSA) [8]; 5 g ae/ha
  % visual injury, Obs: 0%
[9]
  % visual injury, Obs: 60%
[3]; CYPES, 5 g ae/ha
  % visual injury, Obs: 70%
Winter wheat (TRZAW) [10]; 5 g ae/ha
  % visual injury, Obs: 0%
[5]; 5 g ae/ha
  % visual injury, Obs: 70%
[11]; 5 g ae/ha
  % visual injury, Obs: 0%
[12]; HELAN, 5 g ae/ha
  % visual injury, Obs: 85%
[13]; ABUTH, 5 g ae/ha
  % visual injury, Obs: 80%
[6]; BRSNN, 5 g ae/ha
  % visual injury, Obs: 20%
[14]; KCHSC, 5 g ae/ha
  % visual injury, Obs: 50%

## O=C(O)c1nc(Cl)ccc1Cl [clopyralid]
[15]; Chenopodium album, post-emergence, 100 g ae/ha alone, 20-22 d, read-out: % visual injury Obs
  pest or weed control at 100 g/ha: 0%
[15]; clopyralid 120 g ae/ha
  % visual injury (Obs): 10%
Maize (ZEAMX) [7]; 100 g ae/ha
  % visual injury, Obs: 0%
Maize (ZEAMX) [7]; clopyralid 120 g ae/ha
  % visual injury (Obs): 0%
[16]; AMARE, 100 g ae/ha
  % visual injury, Obs: 28%
[16]; Amaranthus retroflexus, post-emergence, 100 g ae/ha alone, 20-22 d, read-out: % visual injury Obs
  pest or weed control at 100 g/ha: 3%
Common rice (ORYSA) [8]; 100 g ae/ha
  % visual injury, Obs: 0%
Common rice (ORYSA) [8]; clopyralid 120 g ae/ha
  % visual injury (Obs): 0%
[17]; clopyralid 120 g ae/ha
  % visual injury (Obs): 0%
[18]; 100 g ae/ha alone
  % visual injury Obs: 0%
Spring barley (HORVS) [19]; 100 g ae/ha alone
  % visual injury Obs: 5%
[20]; Euphorbia heterophylla, post-emergence, read-out: % visual injury, Obs, EPHHL, 100 g ae/ha
  pest or weed control at 100 g/ha: 5%
Winter wheat (TRZAW) [10]; 100 g ae/ha
  % visual injury, Obs: 0%
Winter wheat (TRZAW) [10]; clopyralid 120 g ae/ha
  % visual injury (Obs): 0%
Winter wheat (TRZAW) [10]; 100 g ae/ha alone
  % visual injury Obs: 3%
[5]; [28]
  pest or weed control at 100 g/ha: 85%
[11]; Digitaria sanguinalis, post-emergence, 100 g ae/ha, read-out: % visual injury, Obs
  pest or weed control at 100 g/ha: 0%
[21]; Ipomoea, post-emergence, read-out: % visual injury, Obs, IPOHE, 100 g ae/ha
  pest or weed control at 100 g/ha: 35%
[21]; clopyralid 120 g ae/ha
  % visual injury (Obs): 30%
[6]; [29]
  plant injury at 100 g/ha: 43%
[14]; clopyralid 120 g ae/ha
  % visual injury (Obs): 10%

## CC(Oc1ccc(Cl)cc1Cl)C(=O)O (stereo not drawn) [Dichlorprop-P, dichlorprop-P, reference compound]
Winter wheat (TRZAW) [1]; [25]
  % visual injury Obs: 0%
Winter wheat (TRZAW) [1]; [30]
  % visual injury (Obs): 0%
[16]; Amaranthus retroflexus, post-emergence, 280 g ae/ha alone, 20-22 d, read-out: % visual injury Obs
  pest or weed control at 280 g/ha: 40%
Spring barley (HORVS) [22]
  % visual injury Obs: 0%
[17]; dichlorprop-P 400 g ae/ha
  % visual injury (Obs): 20%
Common rice (ORYSA) [23]
  % visual injury (Obs): 0%
[18]; 280 g ae/ha alone
  % visual injury Obs: 83%
[3]; dichlorprop-P 400 g ae/ha
  % visual injury (Obs): 0%
[20]; dichlorprop-P 400 g ae/ha
  % visual injury (Obs): 60%
[5]; [26]
  pest or weed control at 400 g/ha: 70%
[5]; [28]
  pest or weed control at 280 g/ha: 75%
[12]; dichlorprop-P 400 g ae/ha
  % visual injury (Obs): 85%
[13]; dichlorprop-P 400 g ae/ha
  % visual injury (Obs): 60%
[6]; [27]
  plant injury at 400 g/ha: 80%

## Cc1cc(Cl)ccc1OC(C)C(=O)O (stereo not drawn) [Mecoprop-P, mecoprop-P]
Maize (ZEAMX) [7]; 400 g ae/ha
  % visual injury, Obs: 0%
[16]; Amaranthus retroflexus, post-emergence, 400 g ae/ha alone, 20-22 d, read-out: % visual injury Obs
  pest or weed control at 400 g/ha: 58%
Common rice (ORYSA) [8]; 400 g ae/ha
  % visual injury, Obs: 0%
[17]; STEME, 400 g ae/ha
  % visual injury, Obs: 0%
[18]; 400 g ae/ha alone
  % visual injury Obs: 88%
Spring barley (HORVS) [19]; 400 g ae/ha alone
  % visual injury Obs: 0%
[20]; Euphorbia heterophylla, post-emergence, read-out: % visual injury, Obs, EPHHL, 400 g ae/ha
  pest or weed control at 400 g/ha: 30%
[4]; SORVU, 400 g ae/ha
  % visual injury, Obs: 0%
Winter wheat (TRZAW) [10]; 400 g ae/ha
  % visual injury, Obs: 0%
Winter wheat (TRZAW) [10]; 400 g ae/ha alone
  % visual injury Obs: 0%
[5]; 400 g ae/ha
  % visual injury, Obs: 10%
[21]; Ipomoea, post-emergence, read-out: % visual injury, Obs, IPOHE, 400 g ae/ha
  pest or weed control at 400 g/ha: 30%
[13]; Abutilon theophrasti, post-emergence, ABUTH, 400 g ae/ha, read-out: % visual injury, Obs
  pest or weed control at 400 g/ha: 30%
[6]; [29]
  plant injury at 400 g/ha: 30%
[14]; Bassia scoparia, post-emergence, KCHSC, 400 g ae/ha, read-out: % visual injury, Obs
  pest or weed control at 400 g/ha: 10%

## COc1c(Cl)ccc(Cl)c1C(=O)O [Dicamba-DMA, dicamba-dimethylammonium, reference compound]
[15]; CHEAL, 140 g ae/ha
  % visual injury, Obs: 85%
Winter wheat (TRZAW) [1]; [25]
  % visual injury Obs: 0%
Winter wheat (TRZAW) [1]; [30]
  % visual injury (Obs): 0%
  % visual injury, Obs: 0%
[2]; dicamba-DMA 150 g ae/ha
  % visual injury (Obs): 20%
[16]; Amaranthus retroflexus, post-emergence, 140 g ae/ha alone, 20-22 d, read-out: % visual injury Obs
  pest or weed control at 140 g/ha: 67%
Spring barley (HORVS) [22]
  % visual injury Obs: 0%
Common rice (ORYSA) [23]
  % visual injury (Obs): 0%
  % visual injury, Obs: 5%
[18]; 140 g ae/ha alone
  % visual injury Obs: 40%
[20]; Euphorbia heterophylla, post-emergence, read-out: % visual injury, Obs, EPHHL, 140 g ae/ha
  pest or weed control at 140 g/ha: 20%
[20]; dicamba-DMA 150 g ae/ha
  % visual injury (Obs): 50%
[5]; [26]
  pest or weed control at 150 g/ha: 70%
[11]; Digitaria sanguinalis, post-emergence, 140 g ae/ha, read-out: % visual injury, Obs
  pest or weed control at 140 g/ha: 0%
[21]; dicamba-DMA 150 g ae/ha
  % visual injury (Obs): 70%
[6]; [27]
  plant injury at 150 g/ha: 40%
[6]; [29]
  plant injury at 140 g/ha: 50%
Maize (ZEAMX) [24]
  % visual injury (Obs): 0%
  % visual injury, Obs: 0%
